Results: patent US20250163488A1, “CONJUGATION METHOD INVOLVING A TRANSGLUTAMINASE AT THE FC REGION COMPRISING A TRIMMED N-GLYCAN” (ADC THERAPEUTICS SA, priority 2022, published 2025)

Biological target: T1, MTGase (Streptomyces mobaraensis, UniProt P81453)
T1 sequence (P81453 77-407): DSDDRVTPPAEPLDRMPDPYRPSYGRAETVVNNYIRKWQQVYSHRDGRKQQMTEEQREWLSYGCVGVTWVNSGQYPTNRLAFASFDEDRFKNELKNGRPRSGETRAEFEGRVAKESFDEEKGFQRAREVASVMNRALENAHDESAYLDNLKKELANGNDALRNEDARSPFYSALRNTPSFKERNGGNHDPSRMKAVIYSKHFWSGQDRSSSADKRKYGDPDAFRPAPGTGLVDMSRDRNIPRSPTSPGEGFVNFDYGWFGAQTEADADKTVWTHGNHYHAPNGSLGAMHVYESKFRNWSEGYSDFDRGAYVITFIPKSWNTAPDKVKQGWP
Test: MTGase mediated conjugation of linkers to deglycosylated/trimmed antibody X, efficiency by LC-MS
Type: biochemical
Design: Efficiency of MTGase mediated conjugation, PNGase F Process: tested at 200 eq
Conditions: linker 200 eq., 37° C., 18 h; for Efficiency of MTGase mediated conjugation, EndoS Process: antibody X glycan trimmed with EndoS; for Efficiency of MTGase mediated conjugation, PNGase F Process: antibody X deglycosylated with PNGase F
Method: Antibody X (2.5 mg) was degylcosylated using PNGase F (379 KU) at an antibody concentration of 1.33 mg/mL, the digest was incubated at 37° C. for 18 h. Deglycosylated antibody X was purified by protein A chromatography followed by buffer exchange into PBS and concentration by UF/DF.
Antibody X (2.5 mg) glycans were trimmed using EndoS (12.5 μg) at an antibody concentration of 1.0 mg/mL, the digest was incubated at 37° C. for 18 h. Trimmed antibody X was purified by protein A chromatography followed by buffer exchange into PBS and concentration by UF/DF.
Solutions of linkers 1-4, 7, 8 & 11 (Table 1) were prepared in PBS. Degylcosylated/trimmed antibody X samples (0.1 mg, 2 mg/mL) were next functionalized with linkers 1-4, 7, 8 & 11 (200 eq.) via MTGase mediated conjugation using 6.7 U of enzyme per mg of antibody. The resulting reactions were incubated at 37° C. for 18 h. Functionalized antibody X samples were purified by protein A chromatography followed by buffer exchange into PBS and concentration via UF/DF. The efficiency of conjugation for the purified samples was determined by LC-MS (Table 2).

Molecule | Efficiency of MTGase mediated conjugation, EndoS Process | Efficiency of MTGase mediated conjugation, PNGase F Process
[N-]=[N+]=NCCOCCOCCOCCNC(=O)c1ccc(C(=O)NN)cc1 [Compound 7, 4-hydrazidobenzamide-PEG(4u)-azide] | 100% | –
[N-]=[N+]=NCCOCCOCCOCCNC(=O)c1ccc(NN)cc1 [Compound 8, 4-hydrazinobenzamide-PEG(4u)-azide] | 84% | 91%
[N-]=[N+]=NCCOCCOCCOCCNC(=O)c1ccc(CC(=O)NN)cc1 [Compound 11, 4-hydrazidomethylbenzamide-PEG(4u)-azide] | 100% | –
amine-PEG(3u)-azide [Compound 1] | 100% | 100%
aminooxy-PEG(3u)-azide [Compound 2] | 84% | 95%
hydrazido-PEG(4u)-azide [Compound 3] | 97% | 98%
hydrazino-PEG(4u)-azide [Compound 4] | 86% | 89%
